Measurements reported in PMC6225228, “Design, Synthesis and Evaluation of N-pyrazinylbenzamides as Potential Antimycobacterial Agents” (Molecules : A Journal of Synthetic Chemistry and Natural …, 2018).
In brackets after ≈: the same amount, converted by molar mass. Read-outs that look alike come from different tables or passages of the source.

Experiments:
[1] = test system: Mycobacterium tuberculosis H37Rv CNCTC My 331/88 (ATCC 27294); experiment: Antimycobacterial microdilution MABA, M. tuberculosis; format: cell-based; details: for Mtb H37Rv ATCC 27294 MIC: Middlebrook 7H9 with OADC growth supplement, pH = 6.6, MABA; for MIC: Mycobacterium tuberculosis
[2] = test system: M. kansasii CNCTC My 235/80 (ATCC 12478); experiment: Antimycobacterial microdilution MABA, M. kansasii; format: cell-based, Mycobacterium kansasii; details: for M. kans. ATCC 12478 MIC: Middlebrook 7H9 with OADC, pH 6.6, MABA; for MIC: Mycobacterium kansasii, ATCC12478, pH 6.6, read-out: M. kans. ATCC 12478 MIC, Middlebrook 7H9 with OADC, pH 6.6, MABA
[3] = test system: M. avium ssp. avium CNCTC My 80/72 (ATCC 15769); experiment: Antimycobacterial microdilution MABA, M. avium; format: cell-based, Mycobacterium avium; details: for M. avium ATCC 15769 MIC: Middlebrook 7H9 with OADC, pH 6.6, MABA; for MIC: Mycobacterium avium, ATCC15769, pH 6.6, read-out: M. avium ATCC 15769 MIC
[4] = test system: Mycobacterium smegmatis CCM 4622 (ATCC 607); experiment: Antimycobacterial microdilution, M. smegmatis; format: cell-based; details: Mycolicibacterium smegmatis, read-out: M. smeg. ATCC 607 MIC
[5] = test system: Staphylococcus aureus CCM 4516/08; experiment: Antibacterial microdilution broth, SA; format: cell-based
[6] = test system: Staphylococcus aureus H 5996/08 methicillin resistant; experiment: microbe, parasite or virus in culture; format: cell-based; details: Staphylococcus aureus, MRSA, read-out: MIC MRSA
[7] = test system: Staphylococcus epidermidis H 6966/08; experiment: Antibacterial microdilution broth, SE; format: cell-based; details: Staphylococcus epidermidis, read-out: MIC SE
[8] = test system: Enterococcus sp. J 14365/08; experiment: Antibacterial microdilution broth, EF; format: cell-based; details: Enterococcus, read-out: MIC EF
[9] = test system: Escherichia coli CCM 4517; experiment: Antibacterial microdilution broth, EC; format: cell-based; details: Escherichia coli, read-out: MIC EC
[10] = test system: Pseudomonas aeruginosa CCM 1961; experiment: Antibacterial microdilution broth, PA; format: cell-based; details: Pseudomonas aeruginosa, read-out: MIC PA
[11] = test system: Candida albicans ATCC 44859; experiment: Antifungal microdilution broth, CA; format: cell-based; details: read-out: MIC CA
Candida tropicalis 156 = experiment: Antifungal microdilution broth, CT; format: cell-based; details: read-out: MIC CT
Candida krusei E28 = experiment: Antifungal microdilution broth, CK; format: cell-based; details: read-out: MIC CK
Candida glabrata 20/I = experiment: Antifungal microdilution broth, CG; format: cell-based; details: read-out: MIC CG
Trichosporon asahii 1188 = experiment: Antifungal microdilution broth, TA; format: cell-based; details: read-out: MIC TA
[12] = test system: Aspergillus fumigatus 231; experiment: Antifungal microdilution broth, AF; format: cell-based; details: read-out: MIC AF
[13] = test system: Lichtheimia corymbifera 272; experiment: Antifungal microdilution broth, LC; format: cell-based; details: read-out: MIC LC
[14] = test system: Trichophyton interdigitale 445; experiment: Antifungal microdilution broth, TI; format: cell-based; details: read-out: MIC TI
[15] = human, HepG2 cells
[16] = Confirmatory prolonged HepG2 cytotoxicity, CellTox Green Cytotoxicity Assay; details: human, HepG2 cells
[17] = test system: eight fungal strains of clinical importance; experiment: Antifungal microdilution, all tested fungal strains; format: cell-based; details: read after 24 h (Trichophyton interdigitale 72 h)
[18] = read-out: Mtb H37Rv ATCC 27294 MIC, Middlebrook 7H9 with OADC growth supplement, pH = 6.6, MABA
[19] = read-out: Mtb MIC, molar concentration
[20] = Staphylococcus aureus, CCM4516, 24 h, read-out: MIC SA, 24 h
[21] = Staphylococcus aureus, CCM4516, 48 h, read-out: MIC SA, 48 h
[22] = Candida albicans, ATCC44859, 24 h
[23] = Candida albicans, ATCC44859, 48 h
[24] = Nakaseomyces glabratus, 20/I, 24 h
[25] = Nakaseomyces glabratus, 20/I, 48 h
[26] = Trichosporon asahii, 1188, 24 h
[27] = Trichosporon asahii, 1188, 48 h
[28] = Aspergillus fumigatus, 231, 24 h
[29] = Aspergillus fumigatus, 231, 48 h
[30] = Lichtheimia corymbifera, 272, 24 h
[31] = Lichtheimia corymbifera, 272, 48 h
[32] = Trichophyton interdigitale, 445, 72 h
[33] = Trichophyton interdigitale, 445, 120 h

Cc1ccc(C(=O)Nc2cnc(Cl)cn2)cc1 [Compound 2h]
Mtb H37Rv ATCC 27294 MIC [1]: 6.25 µg/mL | MIC [1, 18]: 3.13 to 6.25 µg/mL | MIC [1, 19]: 25.2 µM | M. kans. ATCC 12478 MIC [2]: >100 µg/mL | MIC [2]: > 100 µg/mL | M. avium ATCC 15769 MIC [3]: >100 µg/mL | MIC [3]: > 100 µg/mL | MIC [4]: ≥ 500 µg/mL | MIC ([5]; 24 h, read-out: MIC SA): >125 µM | MIC [5, 20]: > 125 µM | MIC [5, 21]: > 125 µM | MIC ([6]; 24 h): > 125 µM | MIC ([6]; 48 h): > 125 µM | MIC ([7]; H6966/08, 24 h): > 125 µM | MIC ([7]; H6966/08, 48 h): > 125 µM | MIC ([8]; SP.J14365/08, 24 h): > 125 µM | MIC ([8]; SP.J14365/08, 48 h): > 125 µM | MIC ([9]; CCM4517, 24 h): > 125 µM | MIC ([9]; CCM4517, 48 h): > 125 µM | MIC ([10]; CCM1961, 72 h): > 125 µM | MIC ([10]; CCM1961, 120 h): > 125 µM | MIC [11, 22]: > 125 µM | MIC [11, 23]: > 125 µM | MIC (Candida tropicalis 156; Candida tropicalis, 156, 24 h): > 125 µM | MIC (Candida tropicalis 156; Candida tropicalis, 156, 48 h): > 125 µM | MIC (Candida krusei E28; Pichia kudriavzevii, E28, 24 h): > 125 µM | MIC (Candida krusei E28; Pichia kudriavzevii, E28, 48 h): > 125 µM | MIC (Candida glabrata 20/I; [24]): > 125 µM | MIC (Candida glabrata 20/I; [25]): > 125 µM | MIC (Trichosporon asahii 1188; [26]): > 125 µM | MIC (Trichosporon asahii 1188; [27]): > 125 µM | MIC [12, 28]: > 125 µM | MIC [12, 29]: > 125 µM | MIC [13, 30]: > 125 µM | MIC [13, 31]: > 125 µM | MIC [14, 32]: > 125 µM | MIC [14, 33]: > 125 µM | melting point: 186.4 to 187.1 °C | IC50 at 24 h [15]: > 250 µM

CCc1ccc(C(=O)Nc2cnc(Cl)cn2)cc1 [Compound 2i]
Mtb H37Rv ATCC 27294 MIC [1]: 3.13 µg/mL | MIC [1, 18]: 3.13 to 6.25 µg/mL | MIC [1, 19]: 12 µM | M. kans. ATCC 12478 MIC [2]: >100 µg/mL | MIC [2]: > 100 µg/mL | M. avium ATCC 15769 MIC [3]: >100 µg/mL | MIC [3]: > 100 µg/mL | MIC [4]: ≥ 500 µg/mL | MIC ([5]; 24 h, read-out: MIC SA): >125 µM | MIC [5, 20]: > 125 µM | MIC [5, 21]: > 125 µM | MIC ([6]; 24 h): > 125 µM | MIC ([6]; 48 h): > 125 µM | MIC ([7]; H6966/08, 24 h): > 125 µM | MIC ([7]; H6966/08, 48 h): > 125 µM | MIC ([8]; SP.J14365/08, 24 h): > 125 µM | MIC ([8]; SP.J14365/08, 48 h): > 125 µM | MIC ([9]; CCM4517, 24 h): > 125 µM | MIC ([9]; CCM4517, 48 h): > 125 µM | MIC ([10]; CCM1961, 72 h): > 125 µM | MIC ([10]; CCM1961, 120 h): > 125 µM | MIC [11, 22]: > 125 µM | MIC [11, 23]: > 125 µM | MIC (Candida tropicalis 156; Candida tropicalis, 156, 24 h): > 125 µM | MIC (Candida tropicalis 156; Candida tropicalis, 156, 48 h): > 125 µM | MIC (Candida krusei E28; Pichia kudriavzevii, E28, 24 h): > 125 µM | MIC (Candida krusei E28; Pichia kudriavzevii, E28, 48 h): > 125 µM | MIC (Candida glabrata 20/I; [24]): > 125 µM | MIC (Candida glabrata 20/I; [25]): > 125 µM | MIC (Trichosporon asahii 1188; [26]): > 125 µM | MIC (Trichosporon asahii 1188; [27]): > 125 µM | MIC [12, 28]: > 125 µM | MIC [12, 29]: > 125 µM | MIC [13, 30]: > 125 µM | MIC [13, 31]: > 125 µM | MIC [14, 32]: > 125 µM | MIC [14, 33]: > 125 µM | IC50 at 24 h [16]: 264 µM | IC50 at 48 h [16]: 250 µM | IC50 at 24 h [15]: > 250 µM

C[C@@H]1[C@H](O)[C@@H](C)/C=C/C=C/CC/C=C/C=C/C=C/C=C/C(O[C@H]2O[C@H](C)[C@@H](O)[C@H](N)[C@@H]2O)CC2O[C@](O)(CC(O)C(O)CCC(O)CC(O)CC(O)CC(=O)O[C@H]1C)CC(O)C2C(=O)O (stereo partly drawn) [NYS, nystatin, reference compound]
MIC ([11]; 24 h): 0.98 µM (≈ 0.908 µg/mL) | MIC ([11]; 48 h): 1.95 µM (≈ 1.81 µg/mL) | MIC (Candida tropicalis 156; 24 h): 1.95 µM (≈ 1.81 µg/mL) | MIC (Candida tropicalis 156; 48 h): 3.9 µM (≈ 3.61 µg/mL) | MIC (Candida krusei E28; 24 h): 1.95 µM (≈ 1.81 µg/mL) | MIC (Candida krusei E28; 48 h): 3.9 µM (≈ 3.61 µg/mL) | MIC (Candida glabrata 20/I; 24 h): 1.95 µM (≈ 1.81 µg/mL) | MIC (Candida glabrata 20/I; 48 h): 3.9 µM (≈ 3.61 µg/mL) | MIC (Trichosporon asahii 1188; 24 h): 1.95 µM (≈ 1.81 µg/mL) | MIC (Trichosporon asahii 1188; 48 h): 1.95 µM (≈ 1.81 µg/mL) | MIC ([12]; 24 h): 1.95 µM (≈ 1.81 µg/mL) | MIC ([12]; 48 h): 3.9 µM (≈ 3.61 µg/mL) | MIC ([13]; 24 h): 15.62 µM (≈ 14.5 µg/mL) | MIC ([13]; 48 h): 31.25 µM (≈ 28.9 µg/mL) | MIC ([14]; 72 h): 3.9 µM (≈ 3.61 µg/mL) | MIC ([14]; 120 h): 7.81 µM (≈ 7.23 µg/mL) | MIC, all tested fungal strains [17]: 0.98 to 15.62 µM
